Experimental data reported in patent US6525001B1, “Substituted pyrimidine and pyridine herbicides” (Mid-American Commercialization Corporation, priority 1997, dated 2003).

Legend:
Type in all cases: in vivo
[1] = system: bedstraw (Galium aparine); experiment: Test B pre-/postemergence; design: key: 0 is no effect; 10 is complete control
Procedure, shortened: (§1)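 Response scores run from 0, meaning no effect, to 10, meaning complete control, assigned by eye relative to controls twelve to sixteen days after spraying. Treatment was both preemergence on planted seed and postemergence on plants at the 1- to 4-leaf stage.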

wild oat (Avena fatua) = experiment: Test B pre-/postemergence; design: key: 0 is no effect; 10 is complete control
Procedure, shortened: as §1

soybean (Glycine max) = experiment: Test B pre-/postemergence; design: key: 0 is no effect; 10 is complete control
Procedure, shortened: as §1

[2] = system: velvetleaf (Abutilon theophrasti); experiment: Test B pre-/postemergence; design: key: 0 is no effect; 10 is complete control
Procedure, shortened: as §1

[3] = system: sugar beet (Beta vulgaris); experiment: Test B pre-/postemergence; design: key: 0 is no effect; 10 is complete control
Procedure, shortened: as §1

[4] = system: giant foxtail (Setaria faberii); experiment: Test B pre-/postemergence; design: key: 0 is no effect; 10 is complete control
Procedure, shortened: as §1

[5] = system: wheat (Triticum aestivum); experiment: Test B pre-/postemergence; design: key: 0 is no effect; 10 is complete control
Procedure, shortened: as §1

rape (Brassica napus) = experiment: Test B pre-/postemergence; design: key: 0 is no effect; 10 is complete control
Procedure, shortened: as §1

corn (Zea mays) = experiment: Test B pre-/postemergence; design: key: 0 is no effect; 10 is complete control
Procedure, shortened: as §1

[6] = system: crabgrass (Digitaria sanguinalis); experiment: Test B pre-/postemergence; design: key: 0 is no effect; 10 is complete control
Procedure, shortened: as §1

[7] = system: purple nutsedge (Cyperus rotundus); experiment: Test B pre-/postemergence; design: key: 0 is no effect; 10 is complete control
Procedure, shortened: as §1

[8] = system: bamyardgrass (Echinochloa crus-galli); experiment: Test B flood test
Procedure, shortened: (§2)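 Each value is a visual injury score relative to controls, with 10 meaning complete control and 0 no effect. Evaluation took place twelve to sixteen days after the 2-leaf-stage plants were treated and kept in the greenhouse.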

[9] = system: smallflower flatsedge (Cyperus difformis); experiment: Test B flood test
Procedure, shortened: as §2

rice (Oryza sativa) = experiment: Test B flood test
Procedure, shortened: as §2

[10] = system: duck salad (Heteranthera limosa); experiment: Test B flood test
Procedure, shortened: as §2

[11] = Rate 62 g/ha, Postemergence (flood test)
[12] = Rate 125 g/ha, Postemergence section (flood test species)
[13] = Rate 250 g/ha, Postemergence (flood test species)

Cc1cnc(-n2cnc(C(F)(F)F)n2)nc1Cn1ccc(C(F)(F)F)n1 [Compound 51]
Plant response rating, Bedstraw ([1]; Rate 62 g/ha, Postemergence): 9
Bedstraw plant response rating ([1]; Rate 62 g/ha, Preemergence): 8
Bedstraw plant response rating ([1]; Rate 125 g/ha, Postemergence): 10
Plant response rating, Bedstraw ([1]; Rate 125 g/ha, Preemergence): 10
Plant response rating, Bedstraw ([1]; Rate 250 g/ha, Postemergence): 10
Plant response rating, Bedstraw ([1]; Rate 250 g/ha, Preemergence): 9
Wild oats plant response rating (wild oat (Avena fatua); Rate 62 g/ha, Postemergence): 8
Wild oats plant response rating (wild oat (Avena fatua); Rate 62 g/ha, Preemergence): 4
Wild oats plant response rating (wild oat (Avena fatua); Rate 125 g/ha, Postemergence): 9
Plant response rating, Wild oats (wild oat (Avena fatua); Rate 125 g/ha, Preemergence): 7
Plant response rating, Wild oats (wild oat (Avena fatua); Rate 250 g/ha, Postemergence): 9
Plant response rating, Wild oats (wild oat (Avena fatua); Rate 250 g/ha, Preemergence): 8
Plant response rating, Soybean (soybean (Glycine max); Rate 62 g/ha, Postemergence): 9
Soybean plant response rating (soybean (Glycine max); Rate 62 g/ha, Preemergence): 9
Soybean plant response rating (soybean (Glycine max); Rate 125 g/ha, Postemergence): 9
Plant response rating, Soybean (soybean (Glycine max); Rate 125 g/ha, Preemergence): 9
Plant response rating, Soybean (soybean (Glycine max); Rate 250 g/ha, Postemergence): 10
Plant response rating, Soybean (soybean (Glycine max); Rate 250 g/ha, Preemergence): 9
Plant response rating, Velvetleaf ([2]; Rate 62 g/ha, Postemergence): 7
Velvetleaf plant response rating ([2]; Rate 62 g/ha, Preemergence): 10
Velvetleaf plant response rating ([2]; Rate 125 g/ha, Postemergence): 8
Plant response rating, Velvetleaf ([2]; Rate 125 g/ha, Preemergence): 10
Plant response rating, Velvetleaf ([2]; Rate 250 g/ha, Postemergence): 9
Plant response rating, Velvetleaf ([2]; Rate 250 g/ha, Preemergence): 10
Plant response rating, Sugarbeets ([3]; Rate 62 g/ha, Postemergence): 10
Sugarbeets plant response rating ([3]; Rate 62 g/ha, Preemergence): 10
Sugarbeets plant response rating ([3]; Rate 125 g/ha, Postemergence): 10
Plant response rating, Sugarbeets ([3]; Rate 125 g/ha, Preemergence): 10
Plant response rating, Sugarbeets ([3]; Rate 250 g/ha, Postemergence): 10
Plant response rating, Sugarbeets ([3]; Rate 250 g/ha, Preemergence): 10
Plant response rating, Giant foxtail ([4]; Rate 62 g/ha, Postemergence): 8
Giant foxtail plant response rating ([4]; Rate 62 g/ha, Preemergence): 8
Giant foxtail plant response rating ([4]; Rate 125 g/ha, Postemergence): 10
Plant response rating, Giant foxtail ([4]; Rate 125 g/ha, Preemergence): 10
Plant response rating, Giant foxtail ([4]; Rate 250 g/ha, Postemergence): 10
Plant response rating, Giant foxtail ([4]; Rate 250 g/ha, Preemergence): 10
Wheat plant response rating ([5]; Rate 62 g/ha, Postemergence): 6
Wheat plant response rating ([5]; Rate 62 g/ha, Preemergence): 0
Wheat plant response rating ([5]; Rate 125 g/ha, Postemergence): 9
Plant response rating, Wheat ([5]; Rate 125 g/ha, Preemergence): 3
Plant response rating, Wheat ([5]; Rate 250 g/ha, Postemergence): 9
Plant response rating, Wheat ([5]; Rate 250 g/ha, Preemergence): 5
Plant response rating, Rape (rape (Brassica napus); Rate 62 g/ha, Postemergence): 9
Rape plant response rating (rape (Brassica napus); Rate 62 g/ha, Preemergence): 10
Rape plant response rating (rape (Brassica napus); Rate 125 g/ha, Postemergence): 9
Plant response rating, Rape (rape (Brassica napus); Rate 125 g/ha, Preemergence): 10
Plant response rating, Rape (rape (Brassica napus); Rate 250 g/ha, Postemergence): 10
Plant response rating, Rape (rape (Brassica napus); Rate 250 g/ha, Preemergence): 10
Plant response rating, Corn (corn (Zea mays); Rate 62 g/ha, Postemergence): 7
Corn plant response rating (corn (Zea mays); Rate 62 g/ha, Preemergence): 4
Corn plant response rating (corn (Zea mays); Rate 125 g/ha, Postemergence): 8
Plant response rating, Corn (corn (Zea mays); Rate 125 g/ha, Preemergence): 8
Plant response rating, Corn (corn (Zea mays); Rate 250 g/ha, Postemergence): 9
Plant response rating, Corn (corn (Zea mays); Rate 250 g/ha, Preemergence): 8
Plant response rating, Crabgrass ([6]; Rate 62 g/ha, Postemergence): 9
Crabgrass plant response rating ([6]; Rate 62 g/ha, Preemergence): 10
Crabgrass plant response rating ([6]; Rate 125 g/ha, Postemergence): 10
Plant response rating, Crabgrass ([6]; Rate 125 g/ha, Preemergence): 10
Plant response rating, Crabgrass ([6]; Rate 250 g/ha, Postemergence): 10
Plant response rating, Crabgrass ([6]; Rate 250 g/ha, Preemergence): 10
Plant response rating, Nutsedge ([7]; Rate 62 g/ha, Postemergence): 7
Nutsedge plant response rating ([7]; Rate 62 g/ha, Preemergence): 3
Plant response rating, Nutsedge ([7]; Rate 125 g/ha, Preemergence): 9
Plant response rating, Barnyardgrass [8, 11]: 5
Barnyardgrass plant response rating [8, 12]: 6
Plant response rating, Barnyardgrass [8, 13]: 7
Plant response rating, S. Flatsedge [9, 11]: 9
S. Flatsedge plant response rating [9, 12]: 9
Plant response rating, S. Flatsedge [9, 13]: 9
Plant response rating, Rice (rice (Oryza sativa); [11]): 3
Rice plant response rating (rice (Oryza sativa); [12]): 5
Plant response rating, Rice (rice (Oryza sativa); [13]): 8
Plant response rating, Ducksalad [10, 11]: 8
Ducksalad plant response rating [10, 12]: 9
Plant response rating, Ducksalad [10, 13]: 9
